According to patent US5684026A, “Aminocyclopentane derivative” (priority 1994, dated 1997):
Like-named read-outs stand apart in the source and are kept apart here.

Legend:
Format in all cases: biochemical
[1] = molecular target: T1, α-Glucosidase (Baker's yeast, EC 3.2.1.20) (Saccharomyces cerevisiae, UniProt P53341); assay: α-Glucosidase enzyme inhibition assay (p-nitrophenyl α-D-glucopyranoside); details: for inhibitory activity against α-glucosidase (in words): compared with deoxynojirimycin, summary of Tables 1 and 2
T1 construct: purchased Sigma; host or cells: Baker's yeast
Description: (§1) By using a 96-well microplate, the absorbance (at 405 nm) of liberated p- or o-nitrophenol was measured with a microplate reader (MPR-4Ai, manufactured by Tosoh Corporation).
(§2) Incubation was carried out at 37° C. by using a natural incubator (Compact NIB-10, manufactured by Iwaki Glass Co., Ltd.).
(§3) The enzymes employed herein [α-glucosidase (Baker's yeast), β-glucosidase (Almonds), α-galactosidase (E. coli), β-galactosidase (E. coli) and β-galactosidase (Bovine Liver)] were all purchased from Sigma.
(§4) The substrates (p- or o-nitrophenylglycoside) of these enzymes were all purchased from Sigma.
1) α-Glucosidase (Baker's yeast, EC 3.2.1.20) [described in H. Halvorson and L. Ellias, Biochim. Biophys. Acta, 30, 28-40 (1958)]
Into each well were introduced an aqueous solution of a sample (1 μl), a 0.66 mM solution of p-nitrophenyl α-D-glucopyranoside in a buffer (98 μl) and a (0.4 mg/ml) enzyme solution in the buffer (1 μl) to give a total volume of 100 μl. After incubating at 37° C. for 30 minutes, the reaction was ceased by adding a 1M aqueous solution of sodium carbonate (100 μl). Then the absorbance (A405) of p-nitrophenol liberated by this enzyme reaction was measured. To give the blank absorbance (Ablank), the sample (1 μl) and the substrate (99 μl) were incubated in the same manner and an aqueous solution of sodium carbonate (100 μl) was added followed by the measurement of the absorbance. […] The sample at each concentration, the blank and the control were treated each in two wells at the same time. As the buffer, a 0.1M phosphate buffer solution (pH 6.8, prepared from KH2 PO4 and K2 HPO4) was employed.

[2] = molecular target: β-Glucosidase (Almonds, EC 3.2.1.21); assay: β-Glucosidase enzyme inhibition assay (p-nitrophenyl β-D-glucopyranoside); details: for IC50: pH 5.0, 37° C., 45 minutes
Description: as §1, §2, §3, §4
2) β-Glucosidase (Almonds, EC 3.2.1.21) [described in A. Kobayashi, Agr. Biol. Chem., 26, 203-207 (1962)]
Into each well were introduced an aqueous solution of a sample (1 μl), a 0.33 mM solution of p-nitrophenyl β-D-glucopyranoside in a buffer (98 μl) and a (0.4 mg/ml) enzyme solution in the buffer (1 μl) to give a total volume of 100 μl. After incubating at 37° C. for 45 minutes, the reaction was ceased by adding a 1M aqueous solution of sodium carbonate (100 μl). Then the absorbance (A405) of p-nitrophenol liberated by this enzyme reaction was measured. To give the blank absorbance (Ablank), the sample (1 μl) and the substrate (99 μl) were incubated in the same manner and an aqueous solution of sodium carbonate (100 μl) was added followed by the measurement of the absorbance. […] As the buffer, a 0.1M acetate buffer solution (pH 5.0, prepared from NaOAc and AcOH) was employed. The IC50 was determined in the same manner as employed in the case of α-glucosidase.

[3] = test system: α-Galactosidase (E. Coli, EC. 3.2.1.22); assay: α-Galactosidase enzyme inhibition assay (p-nitrophenyl α-D-galactopyranoside); details: pH 6.5, room temperature, 15 minutes
Description: as §1, §3, §4
3) α-Galactosidase (E. Coli, EC. 3.2.1.22) [described in H. Suzuki, S-C. Li and Y-T. Li, J. Biol. Chem., 245, 781-786 (1970)]
Into each well were introduced an aqueous solution of a sample (1 μl), a buffer (74 μl), a 9.9 mM solution of p-nitrophenyl α-D-galactopyranoside in a buffer (20 μl) and a (50 μg/ml) enzyme solution in the buffer (5 μl) to give a total volume of 100 μl. After incubating the resulting mixture at room temperature (20°-30° C.) for 15 minutes, the reaction was ceased by adding a 0.2M borate buffer solution (pH 9.8, prepared from NaOH and H3 BO3, 100 μl). Then the absorbance (A405) of p-nitrophenol liberated by this enzyme reaction was measured. To give the blank absorbance (Ablank), the sample (1 μl), the substrate (20 μl) and the buffer solution (79 μl) were incubated in the same manner and the 0.2M borate buffer solution (100 μl) was added followed by the measurement of the absorbance. To give the control absorbance ([…]), on the other hand, water (1 μl), the substrate (20 μl), the buffer solution (74 μl) and the enzyme solution (5 μl) were incubated in the same manner and the borate buffer solution (100 μl) was added followed by the measurement of the absorbance. A 0.1M phosphate buffer solution (pH 6.5, prepared from KH2 PO4 and K2 HPO4) was employed as the buffer for the enzyme reaction. The IC50 was determined in the same manner as employed in the case of α-glucosidase.

[4] = molecular target: T2, β-Galactosidase (E. Coli, EC. 3.2.1.23) (Escherichia coli, UniProt P00722); assay: β-Galactosidase (E. coli) enzyme inhibition assay (o-nitrophenyl β-D-galactopyranoside)
T2 construct: purchased Sigma; host or cells: E. coli
Description: as §1, §3, §4
4) β-Galactosidase (E. Coli, EC. 3.2.1.23) [described in G. R. Craven, E. Steers, Jr. and C. B. Anfinsen, J. Biol. Chem., 240, 2468-2477 (1965)]
Into each well were introduced an aqueous solution of a sample (2 μl), a buffer (153 μl), a 20 mM solution of o-nitrophenyl β-D-galactopyranoside in a buffer (25 μl), a 100 mM 2-mercaptoethanol (10 μl) and a (10 μg/ml) enzyme solution in the buffer (10 μl) to give a total volume of 200 μl. After incubating at room temperature (20°-30° C.) for 30 minutes, the absorbance (A405) of o-nitrophenol liberated by this enzyme reaction was measured. To give the blank absorbance (Ablank), the sample (2 μl), the substrate (25 μl), the buffer solution (163 μl) and 2-mercaptoethanol (10 μl) were incubated in the same manner followed by the measurement of the absorbance. To give the control absorbance (Acontrol), on the other hand, water (2 μl), the substrate (25 μl), the buffer solution (153 μl), 2-mercaptoethanol (10 μl) and the enzyme solution (10 μl) were incubated in the same manner followed by the measurement of the absorbance. A 50 mM phosphate buffer solution (pH 7.3, prepared from KH2 PO4 and K2 HPO4, containing 1.3 mM of MgCl2) was employed as the buffer for the enzyme reaction. The IC50 was determined in the same manner as employed in the case of α-glucosidase.

[5] = molecular target: T3, α-glucosidase I (Baker's yeast) (Saccharomyces cerevisiae, UniProt P53008); assay: Inhibitory activity on α-glucosidase I (Ki)
T3 construct: made in house; host or cells: Baker's yeast (native enzyme, prepared by the cited method)
T3 sequence (P53008 25-833 limits assumed): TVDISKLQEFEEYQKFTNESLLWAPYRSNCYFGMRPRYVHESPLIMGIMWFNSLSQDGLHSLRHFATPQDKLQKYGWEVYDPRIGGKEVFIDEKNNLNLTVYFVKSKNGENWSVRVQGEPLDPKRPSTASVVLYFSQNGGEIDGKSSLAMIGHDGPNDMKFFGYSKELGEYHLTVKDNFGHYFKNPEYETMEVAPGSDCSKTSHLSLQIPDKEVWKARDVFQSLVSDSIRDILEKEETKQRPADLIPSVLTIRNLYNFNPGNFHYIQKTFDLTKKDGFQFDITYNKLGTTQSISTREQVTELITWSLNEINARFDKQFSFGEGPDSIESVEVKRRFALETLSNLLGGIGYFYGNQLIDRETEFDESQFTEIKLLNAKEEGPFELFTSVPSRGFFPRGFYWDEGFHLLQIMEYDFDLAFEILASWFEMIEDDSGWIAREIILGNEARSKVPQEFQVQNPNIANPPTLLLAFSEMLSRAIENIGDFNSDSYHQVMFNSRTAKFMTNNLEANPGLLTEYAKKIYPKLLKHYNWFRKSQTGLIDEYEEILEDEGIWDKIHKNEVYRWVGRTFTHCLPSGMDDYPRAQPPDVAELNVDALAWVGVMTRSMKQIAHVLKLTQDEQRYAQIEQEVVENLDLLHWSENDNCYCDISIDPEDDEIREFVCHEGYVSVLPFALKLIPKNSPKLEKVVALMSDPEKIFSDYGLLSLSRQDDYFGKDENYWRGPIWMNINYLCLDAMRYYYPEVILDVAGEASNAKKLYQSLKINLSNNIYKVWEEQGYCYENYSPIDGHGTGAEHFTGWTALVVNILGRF
Description: The α-glucosidase I (Baker's yeast) and its substrate (α-D-Glcl→2α-D-Glcl→3α-D-Glc-O(CH2)6 COOCH3) employed herein were prepared in accordance with the method of I. Neverova et al., Anal. Biochem., 222, 190-196 (1994).
The following measurements were performed by the methods described in this literature.
Namely, 25 μl of a buffer solution containing α-glucosidase I was added to a microtube containing the above-mentioned sample and the substrate (α-D-Glcl→2α-D-Glcl→3α-D-Glc-O(CH2)6 COOCH3). After incubating at 37° C. for 1 hour, a 1.25M tris hydrochloride buffer solution (pH 7.6, 25 μl) was added to thereby cease .the reaction. Then the reaction mixture was transferred onto a microplate followed by the addition of 250 μl of a reaction buffer solution [developing solution; 1M tris hydrochloride buffer solution (pH 7.2) containing glucose oxidase (5 units/ml, manufactured by Sigma), horseradish peroxidase (1 purpurogallin units, manufactured by Sigma) and o-dianisidine dihydrochloride (40 μg/ml)]. Then the mixture was incubated at 37° C. for 30 minutes or until an increase in the absorbance attained a plateau. Then the absorbance (A450-650) of the o-dianisidine formed and oxidized by this enzyme reaction was measured. As a blank, the above reaction was repeated but adding neither the above-mentioned sample nor substrate and the absorbance was measured. Also, the above-mentioned reaction buffer solution was added to D-glucose of a known concentration and the resulting mixture was incubated followed by the measurement of the absorbance to thereby examine a relationship between D-glucose concentration and absorbance. Each measurement was effected in two wells at the same time.
Based on the above-mentioned relationship between D-glucose concentration and absorbance, the amount of glucose liberated from the substrate due to the enzyme reaction of α-glucosidase I in the presence of the sample was determined. From the result thus obtained, Km was determined and then Ki was determined from the sample amount and the Km value.

[6] = pH 6.8, 37° C., 30 minutes, read-out: IC50 (M) α-Glucosidase (Baker's yeast)
[7] = α-glucosidase I, substrate 0.25-4.0 mM, 37° C., 1 hour, read-out: Ki

T1 sequence (P53341 whole entry): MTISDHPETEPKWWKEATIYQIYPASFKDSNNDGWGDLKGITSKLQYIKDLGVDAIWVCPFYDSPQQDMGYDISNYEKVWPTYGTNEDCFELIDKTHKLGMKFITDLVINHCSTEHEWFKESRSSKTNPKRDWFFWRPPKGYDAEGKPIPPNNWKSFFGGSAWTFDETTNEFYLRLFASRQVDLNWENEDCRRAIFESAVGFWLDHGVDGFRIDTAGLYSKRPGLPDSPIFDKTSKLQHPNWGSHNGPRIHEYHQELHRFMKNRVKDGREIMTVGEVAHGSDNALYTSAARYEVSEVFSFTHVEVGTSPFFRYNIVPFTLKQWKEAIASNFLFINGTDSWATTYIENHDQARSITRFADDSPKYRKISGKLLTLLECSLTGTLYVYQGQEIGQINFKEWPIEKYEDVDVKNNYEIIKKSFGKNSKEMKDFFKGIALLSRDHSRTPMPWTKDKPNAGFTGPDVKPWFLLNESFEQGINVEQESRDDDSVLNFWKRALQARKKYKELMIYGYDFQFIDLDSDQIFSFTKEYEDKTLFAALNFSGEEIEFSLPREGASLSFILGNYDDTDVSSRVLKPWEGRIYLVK
T2 sequence (P00722 2-1024 limits assumed): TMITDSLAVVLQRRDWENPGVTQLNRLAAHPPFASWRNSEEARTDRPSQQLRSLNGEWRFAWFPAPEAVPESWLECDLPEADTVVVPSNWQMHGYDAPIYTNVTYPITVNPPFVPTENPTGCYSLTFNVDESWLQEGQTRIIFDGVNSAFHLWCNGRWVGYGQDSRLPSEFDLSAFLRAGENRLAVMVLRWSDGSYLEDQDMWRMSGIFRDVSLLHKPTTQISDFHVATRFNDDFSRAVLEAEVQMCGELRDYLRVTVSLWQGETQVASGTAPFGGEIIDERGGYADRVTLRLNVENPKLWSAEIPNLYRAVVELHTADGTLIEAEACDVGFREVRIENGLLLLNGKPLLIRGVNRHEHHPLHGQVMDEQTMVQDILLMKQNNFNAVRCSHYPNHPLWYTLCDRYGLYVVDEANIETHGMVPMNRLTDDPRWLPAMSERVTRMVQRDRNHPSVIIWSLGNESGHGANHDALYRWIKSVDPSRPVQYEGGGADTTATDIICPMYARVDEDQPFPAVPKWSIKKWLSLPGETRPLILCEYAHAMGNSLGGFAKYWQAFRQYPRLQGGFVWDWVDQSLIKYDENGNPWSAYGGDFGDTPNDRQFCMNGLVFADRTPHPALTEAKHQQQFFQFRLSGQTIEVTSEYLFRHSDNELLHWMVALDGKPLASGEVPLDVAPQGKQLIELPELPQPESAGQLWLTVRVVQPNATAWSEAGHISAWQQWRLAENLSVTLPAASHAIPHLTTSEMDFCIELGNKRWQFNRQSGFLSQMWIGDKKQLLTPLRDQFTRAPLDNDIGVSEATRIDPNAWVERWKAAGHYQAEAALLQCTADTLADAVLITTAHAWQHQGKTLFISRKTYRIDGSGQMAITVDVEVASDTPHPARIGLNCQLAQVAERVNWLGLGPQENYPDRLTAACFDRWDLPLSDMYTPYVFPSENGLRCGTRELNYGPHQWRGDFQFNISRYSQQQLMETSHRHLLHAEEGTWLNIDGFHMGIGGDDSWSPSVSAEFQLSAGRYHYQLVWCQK

| Compound | IC50 [1, 6] [M] | IC50 [2] [µM] | inhibitory activity against α-glucosidase (in words) [1] | Ki [5, 7] [µM] | further results |
| --- | --- | --- | --- | --- | --- |
| OC[C@]12OC(Nc3ccccc3)=N[C@H]1[C@@H](O)[C@H](O)[C@H]2O [Compound 1-2D, (1R,5S,6R,7S,8R)-1-hydroxymethyl-3-phenylamino-2-oxa-4-azabicyclo[3.3.0]oct-3-ene-6,7,8-triol] | 9.99e-07 | > 300 |  |  | IC50 [3]: > 300 µM; IC50 [4]: > 0.0003 M |
| CCCCNC1=N[C@@H]2[C@H](O)[C@@H](O)[C@H](O)[C@]2(CO)O1 [Compound 2-2L, (1S,5R,6S,7R,8S)-1-hydroxymethyl-3-butylamino-2-oxa-4-azabicyclo[3.3.0]oct-3-ene-6,7,8-triol] |  | > 300 | remarkably strong inhibitory activities | 4.2 | inhibitory activity against β-glucosidase (in words) ([2]; summary of Table 1): weak inhibitory activities |
| CCCCN1C[C@H](O)[C@@H](O)[C@H](O)[C@H]1CO [N-B-DNJ, N-butyldeoxynojirimycin, reference compound] |  |  |  |  | IC50 [1]: 8e-05 M; Ki [5]: 3.6 µM |
| N[C@@H]1[C@H](O)[C@@H](O)[C@H](O)[C@@]1(O)CO [d, 1L-(1,2,4,5/3)-5-amino-1C-hydroxymethyl-1,2,3,4-cyclopentanetetraol] |  |  | remarkably strong inhibitory activities | 300 | IC50 [1]: 4.02e-07 M; IC50 ([4]; pH 7.3, room temperature, 30 minutes, read-out: IC50 (M) β-Galactosidase (E. coli)): > 0.0003 M |
| CCCCN(CCCC)[C@@H]1[C@H](O)[C@@H](O)[C@H](O)[C@@]1(O)CO [d-1, 1L-(1,2,4,5/3)-5-dibutylamino-1-hydroxymethyl-1,2,3,4-cyclopentanetetraol] | 5e-07 | 130 | remarkably strong inhibitory activities |  |  |
| CCCCN[C@@H]1[C@H](O)[C@@H](O)[C@H](O)[C@@]1(O)CO [d-2, 1L-(1,2,4,5/3)-5-butylamino-1-hydroxymethyl-1,2,3,4-cyclopentanetetraol] | 1.7e-08 | 3 | remarkably strong inhibitory activities |  |  |
| trehasolamine [reference compound] | 0.0005 | 9.9 |  | 1500 |  |
